Results taken from the supplement of paper PMC10307832.

Experiments:
Assay in all cases: relative viability (nuclei count vs DMSO), 5 days (fraction); higher = more cells survive
A549 = test system: A549
Method in brief: (§1)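 Lung cancer cell lines in 1536-well plates were dosed by pin tool the day after seeding, either with one drug alone or with a fixed anchor-drug dose plus five library-drug doses (not always all listed) in √10 steps. After 5 days, cells were fixed and their nuclei stained in one step (final 0.05% Triton X-100, 1% formaldehyde, 1 ug/ml Hoechst), then counted on 4× images. Relative viability is the nuclei count in treated wells divided by that in vehicle wells. Values are medians of duplicate plates.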

Calu-6 = test system: Calu-6
Method in brief: as §1

EBC-1 = test system: EBC-1
Method in brief: as §1

EKVX = test system: EKVX
Method in brief: as §1

HCC-44 = test system: HCC-44
Method in brief: as §1

IA-LM = test system: IA-LM
Method in brief: as §1

NCI-H1299 = test system: NCI-H1299
Method in brief: as §1

NCI-H1703 = test system: NCI-H1703
Method in brief: as §1

NCI-H1993 = test system: NCI-H1993
Method in brief: as §1

NCI-H2085 = test system: NCI-H2085
Method in brief: as §1

NCI-H2126 = test system: NCI-H2126
Method in brief: as §1

RERF-LC-KJ = test system: RERF-LC-KJ
Method in brief: as §1

Question: What does the source list for `Cc1sc2c(c1C)C(c1ccc(Cl)cc1)=N[C@@H](CC(=O)OC(C)(C)C)c1nnc(C)n1-2` [JQ1] + CC1(C)CCC(c2ccc(Cl)cc2)=C(CN2CCN(c3ccc(C(=O)NS(=O)(=O)c4ccc(N[C@H](CCN5CCOCC5)CSc5ccccc5)c(S(=O)(=O)C(F)(F)F)c4)cc3)CC2)C1 [Navitoclax] (partner 0.5 µM)?
Answer: relative viability (A549; first compound 0.04 µM): 1.27; relative viability (A549; first compound 0.1265 µM): 1.06; relative viability (A549; first compound 0.4 µM): 1.13; relative viability (A549; first compound 1.265 µM): 0.702; relative viability (A549; first compound 4 µM): 0.313; relative viability (Calu-6; first compound 0.04 µM): 0.821; relative viability (Calu-6; first compound 0.1265 µM): 0.757; relative viability (Calu-6; first compound 0.4 µM): 0.792; relative viability (Calu-6; first compound 1.265 µM): 0.481; relative viability (Calu-6; first compound 4 µM): 0.309; relative viability (EBC-1; first compound 0.04 µM): 0.389; relative viability (EBC-1; first compound 0.1265 µM): 0.165; relative viability (EBC-1; first compound 0.4 µM): 0.174; relative viability (EBC-1; first compound 1.265 µM): 0.136; relative viability (EBC-1; first compound 4 µM): 0.125; relative viability (EKVX; first compound 0.04 µM): 0.945; relative viability (EKVX; first compound 0.1265 µM): 0.827; relative viability (EKVX; first compound 0.4 µM): 0.96; relative viability (EKVX; first compound 1.265 µM): 0.802; relative viability (EKVX; first compound 4 µM): 0.685; relative viability (HCC-44; first compound 0.04 µM): 1.02; relative viability (HCC-44; first compound 0.1265 µM): 0.802; relative viability (HCC-44; first compound 0.4 µM): 0.705; relative viability (HCC-44; first compound 1.265 µM): 0.265; relative viability (HCC-44; first compound 4 µM): 0.389; relative viability (IA-LM; first compound 0.04 µM): 0.745; relative viability (IA-LM; first compound 0.1265 µM): 0.294; relative viability (IA-LM; first compound 0.4 µM): 0.126; relative viability (IA-LM; first compound 1.265 µM): 0.0769; relative viability (IA-LM; first compound 4 µM): 0.0558; relative viability (NCI-H1299; first compound 0.04 µM): 1.02; relative viability (NCI-H1299; first compound 0.1265 µM): 0.92; relative viability (NCI-H1299; first compound 0.4 µM): 0.933; relative viability (NCI-H1299; first compound 1.265 µM): 0.591; relative viability (NCI-H1299; first compound 4 µM): 0.419; relative viability (NCI-H1703; first compound 0.04 µM): 1.27; relative viability (NCI-H1703; first compound 0.1265 µM): 0.637; relative viability (NCI-H1703; first compound 0.4 µM): 0.928; relative viability (NCI-H1703; first compound 1.265 µM): 0.405; relative viability (NCI-H1703; first compound 4 µM): 0.309; relative viability (NCI-H1993; first compound 0.04 µM): 0.929; relative viability (NCI-H1993; first compound 0.1265 µM): 0.811; relative viability (NCI-H1993; first compound 0.4 µM): 0.861; relative viability (NCI-H1993; first compound 1.265 µM): 0.85; relative viability (NCI-H1993; first compound 4 µM): 0.875; relative viability (NCI-H2085; first compound 0.04 µM): 1.08; relative viability (NCI-H2085; first compound 0.1265 µM): 1.1; relative viability (NCI-H2085; first compound 0.4 µM): 0.902; relative viability (NCI-H2085; first compound 1.265 µM): 0.561; relative viability (NCI-H2085; first compound 4 µM): 0.643; relative viability (NCI-H2126; first compound 0.04 µM): 0.892; relative viability (NCI-H2126; first compound 0.1265 µM): 0.733; relative viability (NCI-H2126; first compound 0.4 µM): 0.843; relative viability (NCI-H2126; first compound 1.265 µM): 0.578; relative viability (NCI-H2126; first compound 4 µM): 0.555; relative viability (RERF-LC-KJ; first compound 0.04 µM): 0.867; relative viability (RERF-LC-KJ; first compound 0.1265 µM): 1.06; relative viability (RERF-LC-KJ; first compound 0.4 µM): 0.981; relative viability (RERF-LC-KJ; first compound 1.265 µM): 0.275; relative viability (RERF-LC-KJ; first compound 4 µM): 0.33

Question: What does the source list for `COc1cc2nccc(Oc3ccc(NC(=O)Nc4cc(C)on4)c(Cl)c3)c2cc1OC` [Tivozanib] + CC1(C)CCC(c2ccc(Cl)cc2)=C(CN2CCN(c3ccc(C(=O)NS(=O)(=O)c4ccc(N[C@H](CCN5CCOCC5)CSc5ccccc5)c(S(=O)(=O)C(F)(F)F)c4)cc3)CC2)C1 [Navitoclax] (partner 0.5 µM)?
Answer: relative viability (A549; first compound 0.005 µM): 1.22; relative viability (A549; first compound 0.01581 µM): 1.32; relative viability (A549; first compound 0.05 µM): 1.14; relative viability (A549; first compound 0.1581 µM): 1.23; relative viability (A549; first compound 0.5 µM): 1.19; relative viability (Calu-6; first compound 0.005 µM): 0.739; relative viability (Calu-6; first compound 0.01581 µM): 0.896; relative viability (Calu-6; first compound 0.05 µM): 0.798; relative viability (Calu-6; first compound 0.1581 µM): 0.874; relative viability (Calu-6; first compound 0.5 µM): 0.74; relative viability (EBC-1; first compound 0.005 µM): 0.359; relative viability (EBC-1; first compound 0.01581 µM): 0.437; relative viability (EBC-1; first compound 0.05 µM): 0.528; relative viability (EBC-1; first compound 0.1581 µM): 0.436; relative viability (EBC-1; first compound 0.5 µM): 0.485; relative viability (EKVX; first compound 0.005 µM): 0.869; relative viability (EKVX; first compound 0.01581 µM): 0.772; relative viability (EKVX; first compound 0.05 µM): 0.982; relative viability (EKVX; first compound 0.1581 µM): 0.793; relative viability (EKVX; first compound 0.5 µM): 0.922; relative viability (HCC-44; first compound 0.005 µM): 1.01; relative viability (HCC-44; first compound 0.01581 µM): 0.986; relative viability (HCC-44; first compound 0.05 µM): 1.01; relative viability (HCC-44; first compound 0.1581 µM): 0.962; relative viability (HCC-44; first compound 0.5 µM): 0.944; relative viability (IA-LM; first compound 0.005 µM): 0.728; relative viability (IA-LM; first compound 0.01581 µM): 0.899; relative viability (IA-LM; first compound 0.05 µM): 0.737; relative viability (IA-LM; first compound 0.1581 µM): 0.574; relative viability (IA-LM; first compound 0.5 µM): 0.582; relative viability (NCI-H1299; first compound 0.005 µM): 1.03; relative viability (NCI-H1299; first compound 0.01581 µM): 1.07; relative viability (NCI-H1299; first compound 0.05 µM): 1.05; relative viability (NCI-H1299; first compound 0.1581 µM): 1.05; relative viability (NCI-H1299; first compound 0.5 µM): 0.981; relative viability (NCI-H1703; first compound 0.005 µM): 0.369; relative viability (NCI-H1703; first compound 0.01581 µM): 0.244; relative viability (NCI-H1703; first compound 0.05 µM): 0.219; relative viability (NCI-H1703; first compound 0.1581 µM): 0.251; relative viability (NCI-H1703; first compound 0.5 µM): 0.249; relative viability (NCI-H1993; first compound 0.005 µM): 0.86; relative viability (NCI-H1993; first compound 0.01581 µM): 0.857; relative viability (NCI-H1993; first compound 0.05 µM): 0.967; relative viability (NCI-H1993; first compound 0.1581 µM): 0.668; relative viability (NCI-H1993; first compound 0.5 µM): 0.836; relative viability (NCI-H2085; first compound 0.005 µM): 1.07; relative viability (NCI-H2085; first compound 0.01581 µM): 1.1; relative viability (NCI-H2085; first compound 0.05 µM): 1.17; relative viability (NCI-H2085; first compound 0.1581 µM): 1.04; relative viability (NCI-H2085; first compound 0.5 µM): 1.14; relative viability (NCI-H2126; first compound 0.005 µM): 0.842; relative viability (NCI-H2126; first compound 0.01581 µM): 0.818; relative viability (NCI-H2126; first compound 0.05 µM): 0.963; relative viability (NCI-H2126; first compound 0.1581 µM): 0.635; relative viability (NCI-H2126; first compound 0.5 µM): 0.857; relative viability (RERF-LC-KJ; first compound 0.005 µM): 0.872; relative viability (RERF-LC-KJ; first compound 0.01581 µM): 0.828; relative viability (RERF-LC-KJ; first compound 0.05 µM): 1.13; relative viability (RERF-LC-KJ; first compound 0.1581 µM): 1.37; relative viability (RERF-LC-KJ; first compound 0.5 µM): 1.07
